Columns and labels:
Assay in all cases: relative viability (nuclei count vs DMSO), 5 days (fraction); higher = more cells survive
[1] = compound: CC1=CC=C(C=C1)C(=O)CN2C3=C(CCCC3)SC2=N [Pifithrin_alpha] + CS(=O)(=O)N1CCN(Cc2cc3nc(-c4cccc5[nH]ncc45)nc(N4CCOCC4)c3s2)CC1 [Pictilisib] (partner 1 µM)
How it was run: (§1)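 Nuclei were stained with Hoechst during a one-step fixation (final 0.05% Triton X-100, 1% formaldehyde, 1 ug/ml Hoechst) carried out 5 days after dosing, then counted on 4× images. The cells, lung cancer lines in 1536-well plates, had been dosed by pin tool the day after seeding with one drug alone or a fixed anchor-drug dose plus five library-drug doses (not always all listed) in √10 steps. Relative viability is the nuclei count in treated wells divided by that in vehicle wells, and each value is the median of duplicate plates.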

[2] = compound: CC1=CC=C(C=C1)C(=O)CN2C3=C(CCCC3)SC2=N [Pifithrin_alpha] + CC(=O)c1c(C)c2cnc(Nc3ccc(N4CCNCC4)cn3)nc2n(C2CCCC2)c1=O [Palbociclib] (partner 0.5 µM)
How it was run: as §1

Axitinib + Olaparib = compound: CNC(=O)c1ccccc1Sc1ccc2c(/C=C/c3ccccn3)n[nH]c2c1 [Axitinib] + O=C(c1cc(Cc2n[nH]c(=O)c3ccccc23)ccc1F)N1CCN(C(=O)C2CC2)CC1 [Olaparib] (partner 8 µM)
How it was run: as §1

Axitinib + Lapatinib = compound: CNC(=O)c1ccccc1Sc1ccc2c(/C=C/c3ccccn3)n[nH]c2c1 [Axitinib] + CS(=O)(=O)CCNCc1ccc(-c2ccc3ncnc(Nc4ccc(OCc5cccc(F)c5)c(Cl)c4)c3c2)o1 [Lapatinib] (partner 2 µM)
How it was run: as §1

Cell Line | relative viability ([1]; first compound 1 µM) | relative viability ([1]; first compound 3.162 µM) | relative viability ([1]; first compound 10 µM) | relative viability ([1]; first compound 31.62 µM) | relative viability ([1]; first compound 100 µM) | relative viability ([2]; first compound 1 µM) | relative viability ([2]; first compound 3.162 µM) | relative viability ([2]; first compound 10 µM) | relative viability ([2]; first compound 31.62 µM) | relative viability ([2]; first compound 100 µM) | relative viability (Axitinib + Olaparib; first compound 0.005 µM) | relative viability (Axitinib + Olaparib; first compound 0.01581 µM) | relative viability (Axitinib + Olaparib; first compound 0.05 µM) | relative viability (Axitinib + Olaparib; first compound 0.1581 µM) | relative viability (Axitinib + Olaparib; first compound 0.5 µM) | relative viability (Axitinib + Lapatinib; first compound 0.005 µM) | relative viability (Axitinib + Lapatinib; first compound 0.01581 µM) | relative viability (Axitinib + Lapatinib; first compound 0.05 µM) | relative viability (Axitinib + Lapatinib; first compound 0.1581 µM) | relative viability (Axitinib + Lapatinib; first compound 0.5 µM)
NCI-H2009 | 0.658 | 0.78 | 0.816 | 0.365 | 0.594 | 0.194 | 0.219 | 0.172 | 0.128 | 0.174 | 0.724 | 0.686 | 0.698 | 0.722 | 0.819 | 0.92 | 1.05 | 0.9 | 1.02 | 0.9
NCI-H1944 | 0.314 | 0.341 | 0.307 |  | 0.308 | 0.326 | 0.303 | 0.277 | 0.233 | 0.284 | 0.469 | 0.397 | 0.384 | 0.402 | 0.427 | 0.86 | 0.802 | 0.907 | 0.827 | 0.68
SW 1573 | 0.596 | 0.595 | 0.59 | 0.438 | 0.491 |  | 0.395 | 0.367 | 0.241 | 0.266 | 0.502 | 0.595 | 0.55 | 0.417 | 0.507 | 1.15 | 1.09 | 1.29 | 1.06 | 1.03
NCI-H1975 | 0.232 | 0.18 | 0.187 | 0.193 | 0.18 | 0.573 | 0.435 | 0.32 | 0.302 | 0.339 | 0.822 | 0.816 | 0.859 | 0.774 | 0.805 | 1.02 | 0.841 | 0.899 | 0.871 | 0.953
